Measured values: ChEMBL document CHEMBL1134927, “A series of C-terminal amino alcohol dipeptide A beta inhibitors” (Bioorg Med Chem Lett, 2002)

system: HEK293; assay: Effective dose required to inhibit beta-amyloid formation in a human kidney cell line (HEK 293); assay type: functional; settings: read-out: ED50 (the source's name)

Point of comparison: `CCCC[C@@H](CO)NC(=O)[C@H](C)NC(=O)Cc1cc(F)cc(F)c1`, EC50 460 nM. Against it:
- C#CC[C@@H](CO)NC(=O)[C@H](C)NC(=O)[C@@H](O)c1cc(F)cc(F)c1 — 5-fold higher, 2300 nM
- CCCC[C@H](CO)NC(=O)[C@H](C)NC(=O)Cc1cc(F)cc(F)c1 — higher, > 29000 nM
- CCCC[C@H](NC(=O)[C@@H](C)NC(=O)Cc1cc(F)cc(F)c1)C(=O)OC — 20-fold higher, 9400 nM
- C[C@H](NC(=O)Cc1cc(F)cc(F)c1)C(=O)NC1c2ccccc2C[C@@H]1O (single isomer, unassigned) — higher, > 10000 nM
- C[C@H](NC(=O)Cc1cc(F)cc(F)c1)C(=O)N(C)[C@@H](C)[C@@H](O)c1ccccc1 — higher, > 10000 nM
- CSCC[C@@H](CO)NC(=O)[C@H](C)NC(=O)Cc1cc(F)cc(F)c1 — within 1.5-fold, 490 nM
- C[C@H](NC(=O)[C@@H](O)c1cc(F)cc(F)c1)C(=O)N[C@H](CO)CCCc1ccccc1 — 3.5-fold lower, 130 nM
- C#CC[C@@H](CO)NC(=O)[C@H](C)NC(=O)Cc1cc(F)cc(F)c1 — 22-fold higher, 10000 nM
- C[C@H](NC(=O)[C@@H](O)c1cc(F)cc(F)c1)C(=O)N[C@H](CO)CC1CCCCC1 — 2.3-fold lower, 200 nM
- CCCC[C@H](NC(=O)[C@H](C)NC(=O)Cc1cc(F)cc(F)c1)C(=O)OC — 31-fold lower, 15 nM
- CSCC[C@@H](CO)NC(=O)[C@H](C)NC(=O)[C@@H](O)c1cc(F)cc(F)c1 — 2.1-fold higher, 960 nM
- C[C@H](NC(=O)Cc1cc(F)cc(F)c1)C(=O)N[C@H](CO)CC1CCCCC1 — 1.7-fold higher, 800 nM
- C[C@H](NC(=O)Cc1cc(F)cc(F)c1)C(=O)N[C@@H](c1ccccc1)[C@H](O)c1ccccc1 — 7.6-fold higher, 3500 nM
- C[C@H](NC(=O)Cc1cc(F)cc(F)c1)C(=O)NCCO — higher, > 10000 nM
- C[C@H](NC(=O)Cc1cc(F)cc(F)c1)C(=O)N(C)[C@H](C)[C@H](O)c1ccccc1 — higher, > 10000 nM
- C[C@H](NC(=O)Cc1cc(F)cc(F)c1)C(=O)N[C@H](C)[C@@H](O)c1ccccc1 — higher, > 10000 nM
- C[C@H](NC(=O)Cc1cc(F)cc(F)c1)C(=O)N[C@H](CO)c1ccccc1 — 2.6-fold lower, 180 nM
- C[C@H](NC(=O)Cc1cc(F)cc(F)c1)C(=O)N[C@H](CO)Cc1ccccc1 — 5.9-fold higher, 2700 nM
- C[C@H](NC(=O)[C@@H](O)c1cc(F)cc(F)c1)C(=O)N[C@H](CO)CCc1ccccc1 — 1.7-fold lower, 270 nM
- C[C@H](NC(=O)Cc1cc(F)cc(F)c1)C(=O)N[C@@H](C)[C@H](O)c1ccccc1 — higher, > 10000 nM
- CCCC[C@H](CO)NC(=O)[C@H](C)NC(=O)[C@@H](O)c1cc(F)cc(F)c1 — 53-fold higher, 24500 nM
- C[C@H](NC(=O)Cc1cc(F)cc(F)c1)C(=O)N[C@H]1c2ccccc2C[C@H]1O — within 1.5-fold, 630 nM
- C[C@H](NC(=O)Cc1cc(F)cc(F)c1)C(=O)N[C@H](CO)CCCc1ccccc1 — 1.9-fold higher, 870 nM
- C[C@H](NC(=O)Cc1cc(F)cc(F)c1)C(=O)N[C@H](c1ccccc1)[C@@H](O)c1ccccc1 — higher, > 10000 nM
- CCCC[C@@H](CO)NC(=O)[C@H](C)NC(=O)[C@@H](O)c1cc(F)cc(F)c1 — within 1.5-fold, 600 nM
- COC(=O)C[C@@H](O)[C@H](Cc1ccccc1)NC(=O)[C@H](C)NC(=O)Cc1cc(F)cc(F)c1 — higher, > 10000 nM
- C[C@H](NC(=O)Cc1cc(F)cc(F)c1)C(=O)N[C@@H](CO)c1ccccc1 — higher, > 10000 nM
